# From PubChem BioAssay AID1259407 (Chemical Carcinogenesis Research Information System (CCRIS), 2018)
# Active and inactive are the calls of the source. The rule behind the calls is not given here.
# Test system: CCRIS mutagenicity, Ames/micronucleus/aberration tests
# Assay: CCRIS mutagenicity studies
# [1] = Test System: AMES SALMONELLA TYPHIMURIUM, Strain/Indicator: TA98, Metabolic Activation: NONE, Method: STANDARD PLATE
# [2] = Test System: AMES SALMONELLA TYPHIMURIUM, Strain/Indicator: TA98, Metabolic Activation: RAT, LIVER, S-9, AROCLOR 1254, Method: STANDARD PLATE
# [3] = Test System: AMES SALMONELLA TYPHIMURIUM, Strain/Indicator: TA100, Metabolic Activation: NONE, Method: STANDARD PLATE
# [4] = Test System: AMES SALMONELLA TYPHIMURIUM, Strain/Indicator: TA100, Metabolic Activation: RAT, LIVER, S-9, AROCLOR 1254, Method: STANDARD PLATE
# [5] = Test System: AMES SALMONELLA TYPHIMURIUM, Strain/Indicator: TA1535, Metabolic Activation: NONE, Method: STANDARD PLATE
# [6] = Test System: AMES SALMONELLA TYPHIMURIUM, Strain/Indicator: TA1535, Metabolic Activation: RAT, LIVER, S-9, AROCLOR 1254, Method: STANDARD PLATE
# [7] = Test System: AMES SALMONELLA TYPHIMURIUM, Strain/Indicator: TA1537, Metabolic Activation: NONE, Method: STANDARD PLATE
# [8] = Test System: AMES SALMONELLA TYPHIMURIUM, Strain/Indicator: TA1537, Metabolic Activation: RAT, LIVER, S-9, AROCLOR 1254, Method: STANDARD PLATE
# [9] = Test System: AMES SALMONELLA TYPHIMURIUM, Strain/Indicator: TA1538, Metabolic Activation: NONE, Method: STANDARD PLATE
# [10] = Test System: AMES SALMONELLA TYPHIMURIUM, Strain/Indicator: TA1538, Metabolic Activation: RAT, LIVER, S-9, AROCLOR 1254, Method: STANDARD PLATE
# [11] = Test System: AMES SALMONELLA TYPHIMURIUM, Strain/Indicator: TA98, Metabolic Activation: NONE, Method: PREINCUBATION
smiles,measurement,setting,value
C=C(C)C(=O)OC(C)(C)C,mutagenic call,[1],inactive; negative
same,mutagenic call,[2],inactive; negative
same,mutagenic call,"Test System: AMES SALMONELLA TYPHIMURIUM, Strain/Indicator: TA98, Metabolic Activation: RAT, LIVER, S-9, SODIUM PHENOBARBITAL, Method: STANDARD PLATE",inactive; negative
same,mutagenic call,[3],inactive; negative
same,mutagenic call,[4],inactive; negative
same,mutagenic call,"Test System: AMES SALMONELLA TYPHIMURIUM, Strain/Indicator: TA100, Metabolic Activation: RAT, LIVER, S-9, SODIUM PHENOBARBITAL, Method: STANDARD PLATE",inactive; negative
same,mutagenic call,[5],inactive; negative
same,mutagenic call,[6],inactive; negative
same,mutagenic call,"Test System: AMES SALMONELLA TYPHIMURIUM, Strain/Indicator: TA1535, Metabolic Activation: RAT, LIVER, S-9, SODIUM PHENOBARBITAL, Method: STANDARD PLATE",inactive; negative
same,mutagenic call,[7],inactive; negative
same,mutagenic call,[8],inactive; negative
same,mutagenic call,"Test System: AMES SALMONELLA TYPHIMURIUM, Strain/Indicator: TA1537, Metabolic Activation: RAT, LIVER, S-9, SODIUM PHENOBARBITAL, Method: STANDARD PLATE",inactive; negative
same,mutagenic call,[9],inactive; negative
same,mutagenic call,[10],inactive; negative
same,mutagenic call,"Test System: AMES SALMONELLA TYPHIMURIUM, Strain/Indicator: TA1538, Metabolic Activation: RAT, LIVER, S-9, SODIUM PHENOBARBITAL, Method: STANDARD PLATE",inactive; negative
Nc1cc(Cl)cc(Cl)c1,mutagenic call,"End Point: In vitro chromosomal aberrations, Test System: Chinese hamster lung (CHL/IU) cells, Metabolic Activation: Rat, Liver, S9, Phenobarbital and 5,6-benzoflavone",active; positive (structural changes and ploidy)
same,mutagenic call,[1],inactive; negative
same,mutagenic call,[2],inactive; negative
same,mutagenic call,[3],inactive; negative
same,mutagenic call,[4],inactive; negative
same,mutagenic call,"Test System: UDS RODENT HEPATOCYTES, Strain/Indicator: THY INCORP (NON-S-PHASE), Metabolic Activation: NONE, Method: AUTORADIOGRAPHY",inactive; negative
O=C(O)c1nn(Cc2ccc(Cl)cc2Cl)c2ccccc12,mutagenic call,[1],inactive; negative
same,mutagenic call,[2],inactive; negative
same,mutagenic call,[3],inactive; negative
same,mutagenic call,[4],inactive; negative
same,mutagenic call,[5],inactive; negative
same,mutagenic call,[6],inactive; negative
same,mutagenic call,[7],inactive; negative
same,mutagenic call,[8],inactive; negative
same,mutagenic call,[9],inactive; negative
same,mutagenic call,[10],inactive; negative
same,mutagenic call,"Test System: CHINESE HAMSTER OVARY, Strain/Indicator: CHO-K1-BH4 (HPRT), Metabolic Activation: NONE",inactive; negative
same,mutagenic call,"Test System: CHINESE HAMSTER OVARY, Strain/Indicator: CHO-K1-BH4 (HPRT), Metabolic Activation: RAT, LIVER, S-9, AROCLOR 1254",inactive; negative
Nc1nc2n[nH]nc2c(=O)[nH]1,mutagenic call,[1],inactive; negative
same,mutagenic call,"Test System: AMES SALMONELLA TYPHIMURIUM, Strain/Indicator: TA98, Metabolic Activation: S-9, Method: STANDARD PLATE",inactive; negative
same,mutagenic call,[3],inactive; negative
same,mutagenic call,"Test System: AMES SALMONELLA TYPHIMURIUM, Strain/Indicator: TA100, Metabolic Activation: S-9, Method: STANDARD PLATE",inactive; negative
same,mutagenic call,"Test System: AMES SALMONELLA TYPHIMURIUM, Strain/Indicator: TA102, Metabolic Activation: NONE, Method: STANDARD PLATE",inactive; negative
same,mutagenic call,[7],inactive; negative
same,mutagenic call,"Test System: AMES SALMONELLA TYPHIMURIUM, Strain/Indicator: TA1537, Metabolic Activation: S-9, Method: STANDARD PLATE",inactive; negative
same,mutagenic call,"Test System: E. COLI, Strain/Indicator: WP2 (HCR), Metabolic Activation: NONE, Method: STANDARD PLATE",inactive; negative
same,mutagenic call,"Test System: E. COLI, Strain/Indicator: WP2 (HCR), Metabolic Activation: S-9, Method: STANDARD PLATE",inactive; negative
CCC(C)OC(=O)C=Cc1ccc([N+](=O)[O-])o1 (stereo unspecified),mutagenic call,[11],active; positive
Cn1c([N+](=O)[O-])nc2ncc(-c3ccccc3)cc21,mutagenic call,"Test System: AMES SALMONELLA TYPHIMURIUM, Strain/Indicator: TA98(1,8-DNP6), Metabolic Activation: NONE, Method: PREINCUBATION",active; positive
same,mutagenic call,"Test System: AMES SALMONELLA TYPHIMURIUM, Strain/Indicator: TA98(NR), Metabolic Activation: NONE, Method: PREINCUBATION",active; positive
same,mutagenic call,[11],active; positive
same,mutagenic call,"Test System: AMES SALMONELLA TYPHIMURIUM, Strain/Indicator: YG1024, Metabolic Activation: NONE, Method: PREINCUBATION",active; positive
Cn1c(N=[N+]=[N-])nc2ccc3ccccc3c21,mutagenic call,"Test System: AMES SALMONELLA TYPHIMURIUM, Strain/Indicator: TA98(1,8-DNP6), Metabolic Activation: NONE, Method: STANDARD PLATE",active; positive
same,mutagenic call,[1],active; positive
Nc1cc(N)c(-c2ccccc2)c([N+](=O)[O-])c1,mutagenic call,[11],active; positive
same,mutagenic call,"Test System: AMES SALMONELLA TYPHIMURIUM, Strain/Indicator: TA98, Metabolic Activation: RAT, LIVER, S-9, KANECHLOR 500, Method: PREINCUBATION",active; positive
OC[C@@H](O)[C@@H](O)CO,mutagenic call,[1],inactive; negative
same,mutagenic call,"Test System: AMES SALMONELLA TYPHIMURIUM, Strain/Indicator: TA98, Metabolic Activation: RAT, LIVER, S-9, Method: STANDARD PLATE",inactive; negative
same,mutagenic call,[3],inactive; negative
same,mutagenic call,"Test System: AMES SALMONELLA TYPHIMURIUM, Strain/Indicator: TA100, Metabolic Activation: RAT, LIVER, S-9, Method: STANDARD PLATE",inactive; negative
same,mutagenic call,[5],inactive; negative
same,mutagenic call,"Test System: AMES SALMONELLA TYPHIMURIUM, Strain/Indicator: TA1535, Metabolic Activation: RAT, LIVER, S-9, Method: STANDARD PLATE",inactive; negative
same,mutagenic call,[7],inactive; negative
same,mutagenic call,"Test System: AMES SALMONELLA TYPHIMURIUM, Strain/Indicator: TA1537, Metabolic Activation: RAT, LIVER, S-9, Method: STANDARD PLATE",inactive; negative
same,mutagenic call,"Test System: E. COLI, Strain/Indicator: WP2 UVRA, Metabolic Activation: NONE, Method: STANDARD PLATE",inactive; negative
same,mutagenic call,"Test System: E. COLI, Strain/Indicator: WP2 UVRA, Metabolic Activation: RAT, LIVER, S-9, Method: STANDARD PLATE",inactive; negative
